Test results reported in patent US8871767B2, “2-arylimidazo[1,2-B]pyridazine, 2-phenylimidazo[1,2-A]pyridine, and 2-phenylimidazo[1,2-A]pyrazine derivatives” (Hengrui (USA) Ltd., priority 2010, dated 2014).
Like-named read-outs stand apart in the source and are kept apart here.

Assays:
[1] = test system: Hedgehog pathway activation on 10T1/2/Smo#3 cells (C3H10T1/2 cells transfected with human Smoothened receptor); test: Hedgehog pathway activation on 10T1/2/Smo#3 cells measured by ALP activity; type: cell-based; conditions: Mus musculus, C3H 10T1/2, 10T1/2/Smo#3 cells
Outline: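 C3H10T1/2 cells stably expressing human Smoothened were activated with hShh-conditioned medium (10-20%) or 500 nM SAG, with test compounds present. Pathway block read as inhibited ALP activity (4-methylumbelliferyl phosphate fluorescence); viability checked by CellTiter-Blue. IC50 values reported.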

[2] = test system: Hedgehog pathway activation (GLi-luciferase reporter) in Shh Light II reporter cells; test: Hedgehog pathway activation on Shh Light II reporter cells measured by luciferase activity; type: cell-based; conditions: Mus musculus, Shh Light II
Outline: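 Shh Light II reporter cells carrying a hedgehog-responsive GLi-luciferase reporter were stimulated either with 500 nM SAG, a direct Smoothened agonist, or with conditioned media containing human Sonic Hedgehog (hShh). Test compounds were evaluated for blocking this pathway activation, quantified by luciferase activity. Cell viability was monitored in parallel with the Celltiter-Blue® assay.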

[3] = measured by ALP activity, read-out: ALP (IC50, inhibition of Hedgehog pathway activation)
[4] = hShh activation, read-out: Shh (IC50, inhibition of Hedgehog pathway activation)
[5] = hShh activation, ALP activity, read-out: 10T1/2/Smo#3 ALP activity (hShh Activation)
[6] = SAG activation (500 nM SAG), read-out: Shh Light II luciferase activity (SAG activation)
[7] = hShh activation, read-out: Shh Light II luciferase activity (hShh activation)

Structure (SMILES) | IC50 [1, 3] [nM] | IC50 [2, 4] [nM] | IC50 [1, 5] [nM] | IC50 [2, 6] [nM] | IC50 [2, 7] [nM]
CCc1ccc(-c2cn3nc(-c4cccnc4C(F)(F)F)ccc3n2)cc1NC(=O)CC(C)(C)C [Example 691, N-(2-ethyl-5-(6-(2-(trifluoromethyl)pyridin-3-yl)imidazo[1,2-b]pyridazin-2-yl)phenyl)-3,3-dimethylbutanamide] | 1220 | 459 | – | – | –
Cc1ccc(-c2cn3nc(-c4cccnc4C(F)(F)F)ccc3n2)cc1NC(=O)C1CCCN1 (stereo not drawn) [Example 645, N-(2-methyl-5-(6-(2-(trifluoromethyl)pyridin-3-yl)imidazo[1,2-b]pyridazin-2-yl)phenyl)pyrrolidine-2-carboxamide] | 155 | 589 | – | – | –
CN(C)[C@@H]1CCN(c2ccc3nc(-c4ccc(C(F)(F)F)c(NC(=O)C(C)(C)C)c4)cn3n2)C1 [Example 470, (R)-N-(5-(6-(3-(dimethylamino)pyrrolidin-1-yl)imidazo[1,2-b]pyridazin-2-yl)-2-(trifluoromethyl)phenyl)pivalamide] | 28 | 65 | – | – | –
Cc1c(-c2ccccc2)nc2ccc(NC3CCN(Cc4ccccc4)CC3)nn12 [Example 168, N-(1-benzylpiperidin-4-yl)-3-methyl-2-phenylimidazo[1,2-b]pyridazin-6-amine] | 2980 | 1920 | 300 to 3000 | 300 to 3000 | 300 to 3000
Cc1ccc(-c2nc3ccc(Cl)nn3c2C)cc1NC(=O)C(C)(C)C [Example 311, N-(5-(6-chloro-3-methylimidazo[1,2-b]pyridazin-2-yl)-2-methylphenyl)pivalamide] | 2420 | 2080 | – | – | –
CCOC(=O)Nc1cc(-c2cn3nc(-c4cccnc4C(F)(F)F)ccc3n2)ccc1Cl [Example 673, ethyl 2-chloro-5-(6-(2-(trifluoromethyl)pyridin-3-yl)imidazo[1,2-b]pyridazin-2-yl)phenylcarbamate] | 678 | 169 | – | – | –
Cc1c(-c2ccccc2F)nn2cc(-c3ccc(C(F)(F)F)c(NC(=O)C(C)(C)C)c3)nc2c1C [Example 200, N-(5-(6-(2-fluorophenyl)-7,8-dimethylimidazo[1,2-b]pyridazin-2-yl)-2-(trifluoromethyl)phenyl)pivalamide] | 284 | 281 | – | – | –
Cc1cc(F)c(-c2cn3nc(-c4cccnc4C(F)(F)F)ccc3n2)cc1NC(=O)C(C)(C)C [Example 649, N-(4-fluoro-2-methyl-5-(6-(2-(trifluoromethyl)pyridin-3-yl)imidazo[1,2-b]pyridazin-2-yl)phenyl)pivalamide] | 50 | 80 | – | – | –
COc1ccc2nc(-c3ccc(C)c(NC(=O)C(C)(C)C)c3)c(-c3ccc(F)cc3)n2n1 [Example 114, N-(5-(3-(4-fluorophenyl)-6-methoxyimidazo[1,2-b]pyridazin-2-yl)-2-methylphenyl)pivalamide] | > 10000 | 7660 | 3000 to 30000 | 3000 to 30000 | 3000 to 30000
Cc1ccc(-c2cn3nc(-c4ccc(OCCCCCCC(=O)NO)cc4C(F)(F)F)ccc3n2)cc1NC(=O)C(C)(C)C [Example 417, N-hydroxy-7-(4-(2-(4-methyl-3-pivalamidophenyl)imidazo[1,2-b]pyridazin-6-yl)-3-(trifluoromethyl)phenoxy)heptanamide] | – | 380 | 3000 to 30000 | 300 to 3000 | 300 to 3000
CC(C)(C)C(=O)Nc1cc(-c2cn3nc(-c4cccc(C(F)(F)F)c4)ccc3n2)ccc1C(F)(F)F [Example 223, N-(2-(trifluoromethyl)-5-(6-(3-(trifluoromethyl)phenyl)imidazo[1,2-b]pyridazin-2-yl)phenyl)pivalamide] | 289 | 97 | – | – | –
O=C(Nc1cc(-c2cn3nc(-c4cccnc4C(F)(F)F)ccc3n2)ccc1F)C1CCCCC1 [Example 677, N-(2-fluoro-5-(6-(2-(trifluoromethyl)pyridin-3-yl)imidazo[1,2-b]pyridazin-2-yl)phenyl)cyclohexanecarboxamide] | 637 | 146 | – | – | –
CCc1ccc(-c2cn3nc(-c4cccnc4C(F)(F)F)ccc3n2)cc1NC(=O)N(CC)CC [Example 693, 1,1-diethyl-3-(2-ethyl-5-(6-(2-(trifluoromethyl)pyridin-3-yl)imidazo[1,2-b]pyridazin-2-yl)phenyl)urea] | 186 | 192 | – | – | –
CCOC(=O)CCCOc1ccc(-c2ccc3nc(-c4ccc(C)c(NC(=O)C(C)(C)C)c4)cn3n2)c(C(F)(F)F)c1 [Example 428, ethyl 4-(4-(2-(4-methyl-3-pivalamidophenyl)imidazo[1,2-b]pyridazin-6-yl)-3-(trifluoromethyl)phenoxy)butanoate] | 734 | 78 | – | – | –
CC(C)(C)C(=O)Nc1cc(-c2cn3nc(N4CCC(O)CC4)ccc3n2)ccc1C(F)(F)F [Example 237, N-(5-(6-(4-hydroxypiperidin-1-yl)imidazo[1,2-b]pyridazin-2-yl)-2-(trifluoromethyl)phenyl)pivalamide] | 211 | 245 | – | – | –
CC(C)(C)C(=O)Nc1cc(-c2cn3ccc(Cl)cc3n2)ccc1C(F)(F)F [Example 82, N-(5-(7-chloroimidazo[1,2-a]pyridin-2-yl)-2-(trifluoromethyl)phenyl)pivalamide] | > 10000 | 6060 | – | – | –
Cc1ccc(-c2cn3nc(-c4cccnc4C(F)(F)F)ccc3n2)cc1-c1cscn1 [compound 512] | 205 | 311 | – | – | –
CC(C)(C)C(=O)Nc1cc(-c2cn3nc(-c4ccccc4C(F)(F)F)ccc3n2)ccc1C#N [Example 225, N-(2-cyano-5-(6-(2-(trifluoromethyl)phenyl)imidazo[1,2-b]pyridazin-2-yl)phenyl)pivalamide] | 65 | 48 | < 300 | 3000 to 30000 | < 300
CCOC(=O)CCCCOc1ccc(-c2ccc3nc(-c4ccc(C)c(NC(=O)C(C)(C)C)c4)cn3n2)c(C(F)(F)F)c1 [Example 427, ethyl 5-(4-(2-(4-methyl-3-pivalamidophenyl)imidazo[1,2-b]pyridazin-6-yl)-3-(trifluoromethyl)phenoxy)pentanoate] | 176 | 27 | – | – | –

Continued, values first:

IC50 [1, 3] [nM] | IC50 [2, 4] [nM] | IC50 [1, 5] [nM] | IC50 [2, 6] [nM] | IC50 [2, 7] [nM] | Structure (SMILES)
1870 | 2000 | 300 to 3000 | 3000 to 30000 | 300 to 3000 | COc1ccc2nc(-c3ccc(C)c(NC(=O)C(C)(C)C)c3)c(C)n2n1 [Example 121, N-(5-(6-methoxy-3-methylimidazo[1,2-b]pyridazin-2-yl)-2-methylphenyl)pivalamide]
462 | 224 | – | – | – | Cc1ccc(-c2cn3nc(N4CCC(C#N)CC4)ccc3n2)cc1NC(=O)C(C)(C)C [compound 544]
110 | 84 | – | – | – | Cc1ccc(-c2cn3nc(N4CCC(N(C)C)C4)ccc3n2)cc1NC(=O)C(C)(C)C (stereo not drawn) [Example 361, N-(5-(6-(3-(dimethylamino)pyrrolidin-1-yl)imidazo[1,2-b]pyridazin-2-yl)-2-methylphenyl)pivalamide]
6 | 13 | < 300 | < 300 | < 300 | CC(C)(C)C(=O)Nc1cc(-c2cn3nc(-c4cccnc4C(F)(F)F)ccc3n2)ccc1Cl [Example 642, N-(2-chloro-5-(6-(2-(trifluoromethyl)pyridin-3-yl)imidazo[1,2-b]pyridazin-2-yl)phenyl)pivalamide]
4430 | 4400 | 3000 to 30000 | 3000 to 30000 | 3000 to 30000 | CC(C)(C)C(=O)Nc1cc(-c2cn3nc(C#N)ccc3n2)ccc1C(F)(F)F [Example 173, N-(5-(6-cyanoimidazo[1,2-b]pyridazin-2-yl)-2-(trifluoromethyl)phenyl)pivalamide]
681 | 562 | – | – | – | COc1ccc(-c2ccc3nc(-c4ccc(C(F)(F)F)c(NC(=O)C(C)(C)C)c4)cn3n2)cn1 [Example 170, N-(5-(6-(6-methoxypyridin-3-yl)imidazo[1,2-b]pyridazin-2-yl)-2-(trifluoromethyl)phenyl)pivalamide]
1200 | 1070 | – | – | – | C[C@H]1CCCC[C@H]1Oc1ccc2nc(-c3ccc(C(F)(F)F)c(NC(=O)C(C)(C)C)c3)cn2n1 [Example 308, N-(5-(6-((1R,2S)-2-methylcyclohexyloxy)imidazo[1,2-b]pyridazin-2-yl)-2-(trifluoromethyl)phenyl)pivalamide]
110 | 4970 | < 300 | 300 to 3000 | 300 to 3000 | Cc1ccc(-c2cn3nc(C4CC4)ccc3n2)cc1NC(=O)C(C)(C)C [Example 127, N-(5-(6-cyclopropylimidazo[1,2-b]pyridazin-2-yl)-2-methylphenyl)pivalamide]
8040 | > 10000 | – | – | – | COc1ccc2nc(-c3ccc(Cl)c(NC(=O)C(C)(C)C)c3)cn2n1 [Example 110, N-(2-chloro-5-(6-methoxyimidazo[1,2-b]pyridazin-2-yl)phenyl)pivalamide]
82 | 83 | – | – | – | Cc1ccc(-c2cn3nc(-c4cccnc4F)ccc3n2)cc1NC(=O)C(C)(C)C [Example 265, N-(5-(6-(2-fluoropyridin-3-yl)imidazo[1,2-b]pyridazin-2-yl)-2-methylphenyl)pivalamide]
